Experimental data: patent US11504364B2, “Inhibitors of fibroblast activation protein” (Praxis Biotech LLC, priority 2018, dated 2022)
Like-named read-outs stand apart in the source and are kept apart here.

Experiments:
[1] = target: circulating FAPα from hamster plasma (Mesocricetus auratus, UniProt A0ABM2XF29); assay: Ex vivo inhibition of circulating FAPα activity in hamster plasma (PRXS-AMC); format: biochemical, Golden Syrian hamster; details: PRXS-AMC substrate
Protocol: Male Golden Syrian hamsters were provided by National Laboratory Animal Center (NLAC) in Taiwan. The animals were maintained in a hygienic environment under controlled temperature (20-24° C.) and humidity (50%-80%) with 12 hours light/dark cycles. Free access to standard lab diet [MFG (Oriental Yeast Co., Ltd. Japan)] and autoclaved tap water were granted. All aspects of this work including housing, experimentation and disposal of animals were performed in general accordance with the “Guide for the Care and Use of Laboratory Animals: Eighth Edition” (National Academies Press, Washington, D.C., 2011). In addition, the animal care and use protocol was reviewed and approved by the IACUC at Pharmacology Discovery Services Taiwan, Ltd. Immediately after the sacrifice of hamsters, blood samples were collected via terminal cardiac puncture in tubes coated with EDTA-K2, mixed gently, then kept on ice and centrifuged at 2,500×g for 15 minutes at 4° C. After plasma separation, samples were stored at −80° C. in aliquots of […]. To assay exemplary compounds in hamster plasma, a similar protocol as described for human plasma was performed diluting thawed plasma 1:2 in assay buffer. […] AMC release was detected measuring fluorescence at an excitation/emission wavelength of 380/460 nm using a Multifunction Microplate Reader. […]

[2] = target: T1, recombinant human DPP9 (rhDPP9) (Homo sapiens (Human), UniProt Q86TI2); assay: Inhibition of DPP9 activity, 10 ng rhDPP9, H-Gly-Pro-AMC; format: biochemical; details: Table 3B
T1 sequence (Q86TI2 whole entry): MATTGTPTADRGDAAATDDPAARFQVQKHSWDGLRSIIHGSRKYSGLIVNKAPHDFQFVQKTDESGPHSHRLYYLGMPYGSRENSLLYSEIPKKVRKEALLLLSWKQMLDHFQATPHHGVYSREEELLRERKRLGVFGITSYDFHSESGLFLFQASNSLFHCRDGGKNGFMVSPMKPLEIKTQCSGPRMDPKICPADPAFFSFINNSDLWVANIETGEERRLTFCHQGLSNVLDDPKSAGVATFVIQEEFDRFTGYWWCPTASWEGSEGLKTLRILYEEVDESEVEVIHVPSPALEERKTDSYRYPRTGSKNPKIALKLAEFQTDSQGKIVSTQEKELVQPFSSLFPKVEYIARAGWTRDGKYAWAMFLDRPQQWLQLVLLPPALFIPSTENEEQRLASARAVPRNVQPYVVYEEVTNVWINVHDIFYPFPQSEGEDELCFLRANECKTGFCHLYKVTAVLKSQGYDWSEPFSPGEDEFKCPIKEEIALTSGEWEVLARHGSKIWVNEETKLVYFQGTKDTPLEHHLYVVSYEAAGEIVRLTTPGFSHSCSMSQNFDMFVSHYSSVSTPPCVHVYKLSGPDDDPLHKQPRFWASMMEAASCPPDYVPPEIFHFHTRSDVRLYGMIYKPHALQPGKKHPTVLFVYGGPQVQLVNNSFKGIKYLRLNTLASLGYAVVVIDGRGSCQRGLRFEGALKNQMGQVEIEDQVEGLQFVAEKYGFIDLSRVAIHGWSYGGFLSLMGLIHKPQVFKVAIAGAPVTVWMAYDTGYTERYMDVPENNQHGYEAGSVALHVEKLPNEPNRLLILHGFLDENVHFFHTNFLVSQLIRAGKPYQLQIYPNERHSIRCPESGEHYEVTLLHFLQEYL

[3] = test system: human AML cell line MV4-11; assay: Cytotoxicity assay in human leukemia cell lines (Cell-Titer Glo)
[4] = target: T1, recombinant human DPP9 (rhDPP9); assay: DPP9 enzymatic activity assay; format: biochemical; details: Table 3A
[5] = target: recombinant human DPPIV (rhDPPIV) (Homo sapiens (Human), UniProt P27487); assay: DPPIV enzymatic activity assay; format: biochemical; details: Table 3B
recombinant human DPPIV (rhDPPIV), sequence (P27487 whole entry): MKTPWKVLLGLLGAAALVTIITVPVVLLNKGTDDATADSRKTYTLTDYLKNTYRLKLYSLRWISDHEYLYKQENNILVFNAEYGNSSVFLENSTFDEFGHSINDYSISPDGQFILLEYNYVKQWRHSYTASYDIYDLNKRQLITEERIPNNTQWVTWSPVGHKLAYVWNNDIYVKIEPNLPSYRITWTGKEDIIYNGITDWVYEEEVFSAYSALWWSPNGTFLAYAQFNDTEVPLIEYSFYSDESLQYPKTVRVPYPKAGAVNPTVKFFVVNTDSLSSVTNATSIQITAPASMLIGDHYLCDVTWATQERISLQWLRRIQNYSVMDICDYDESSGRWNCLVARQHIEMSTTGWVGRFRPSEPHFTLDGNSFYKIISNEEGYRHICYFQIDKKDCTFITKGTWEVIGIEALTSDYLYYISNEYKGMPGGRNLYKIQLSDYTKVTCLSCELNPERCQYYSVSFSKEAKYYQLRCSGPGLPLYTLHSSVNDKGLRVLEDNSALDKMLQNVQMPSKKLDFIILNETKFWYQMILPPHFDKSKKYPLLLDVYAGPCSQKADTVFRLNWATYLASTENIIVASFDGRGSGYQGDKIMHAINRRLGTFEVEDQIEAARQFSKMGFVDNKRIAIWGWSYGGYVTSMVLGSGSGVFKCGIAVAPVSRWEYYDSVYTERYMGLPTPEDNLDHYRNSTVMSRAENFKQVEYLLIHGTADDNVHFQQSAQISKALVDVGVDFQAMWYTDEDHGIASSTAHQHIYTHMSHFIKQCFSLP

[6] = target: recombinant human FAPα (rhFAPα) (Homo sapiens (Human), UniProt Q12884); assay: FAPα enzymatic exopeptidase (dipeptidase) activity assay, Z-Gly-Pro-AMC; format: biochemical; details: for inhibition at 1 µM / rhFAPα (% exo inh @ 1 μM): 1 μM test compound, exopeptidase; for inhibition at 1 µM: read-out: rhFAPα (% exo inh @ 1 μM)
recombinant human FAPα (rhFAPα), sequence (Q12884 whole entry): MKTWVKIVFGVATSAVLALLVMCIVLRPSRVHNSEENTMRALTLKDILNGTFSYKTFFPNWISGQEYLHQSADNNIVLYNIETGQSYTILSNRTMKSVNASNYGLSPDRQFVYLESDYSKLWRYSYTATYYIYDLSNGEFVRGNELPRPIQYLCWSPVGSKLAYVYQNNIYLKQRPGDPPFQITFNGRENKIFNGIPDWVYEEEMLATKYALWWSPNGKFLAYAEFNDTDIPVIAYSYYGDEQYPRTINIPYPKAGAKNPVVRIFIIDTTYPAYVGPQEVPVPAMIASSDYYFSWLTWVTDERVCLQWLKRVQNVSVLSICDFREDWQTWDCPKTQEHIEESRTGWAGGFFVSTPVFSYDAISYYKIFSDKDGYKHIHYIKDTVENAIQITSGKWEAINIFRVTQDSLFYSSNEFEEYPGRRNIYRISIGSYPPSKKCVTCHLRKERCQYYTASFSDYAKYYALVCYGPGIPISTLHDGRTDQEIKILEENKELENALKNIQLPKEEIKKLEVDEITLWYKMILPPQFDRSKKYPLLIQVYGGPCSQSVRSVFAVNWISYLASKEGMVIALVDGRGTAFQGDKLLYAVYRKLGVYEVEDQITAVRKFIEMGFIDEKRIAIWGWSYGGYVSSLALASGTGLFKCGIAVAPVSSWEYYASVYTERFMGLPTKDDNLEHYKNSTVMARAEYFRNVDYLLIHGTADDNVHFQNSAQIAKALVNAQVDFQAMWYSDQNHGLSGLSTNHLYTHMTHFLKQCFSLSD

[7] = target: recombinant human PREP (rhPREP) (Homo sapiens (Human), UniProt P48147); assay: PREP enzymatic activity assay; format: biochemical; details: Table 3B
recombinant human PREP (rhPREP), sequence (P48147 whole entry): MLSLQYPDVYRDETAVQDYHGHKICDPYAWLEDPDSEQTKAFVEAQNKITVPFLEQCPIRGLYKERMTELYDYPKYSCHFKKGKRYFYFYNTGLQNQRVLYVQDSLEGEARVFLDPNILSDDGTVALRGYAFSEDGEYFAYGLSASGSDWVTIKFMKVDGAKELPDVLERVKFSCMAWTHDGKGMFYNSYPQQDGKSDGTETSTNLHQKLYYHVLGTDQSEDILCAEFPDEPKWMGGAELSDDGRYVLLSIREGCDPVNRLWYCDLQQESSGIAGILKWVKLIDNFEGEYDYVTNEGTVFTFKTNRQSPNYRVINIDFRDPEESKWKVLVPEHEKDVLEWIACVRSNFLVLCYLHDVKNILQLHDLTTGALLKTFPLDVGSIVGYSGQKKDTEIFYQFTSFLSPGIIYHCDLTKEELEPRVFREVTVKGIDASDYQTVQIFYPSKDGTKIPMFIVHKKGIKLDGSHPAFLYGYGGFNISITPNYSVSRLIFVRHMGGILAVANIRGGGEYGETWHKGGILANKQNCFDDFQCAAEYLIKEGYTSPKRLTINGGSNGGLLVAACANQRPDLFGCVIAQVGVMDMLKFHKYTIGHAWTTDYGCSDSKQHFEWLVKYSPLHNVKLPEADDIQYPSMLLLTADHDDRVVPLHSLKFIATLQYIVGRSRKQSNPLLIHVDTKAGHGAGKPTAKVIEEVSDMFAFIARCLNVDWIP

[8] = target: recombinant mouse FAPα (rmFAPα) (Mus musculus (Mouse), UniProt P97321); assay: FAPα enzymatic exopeptidase (dipeptidase) activity assay, Z-Gly-Pro-AMC; format: biochemical; details: 1 μM test compound
[9] = target: recombinant mouse DPPIV (rmDPPIV) (Mus musculus (Mouse), UniProt P28843); assay: DPPIV enzymatic activity assay; format: biochemical; details: Table 3A
recombinant mouse DPPIV (rmDPPIV), sequence (P28843 whole entry): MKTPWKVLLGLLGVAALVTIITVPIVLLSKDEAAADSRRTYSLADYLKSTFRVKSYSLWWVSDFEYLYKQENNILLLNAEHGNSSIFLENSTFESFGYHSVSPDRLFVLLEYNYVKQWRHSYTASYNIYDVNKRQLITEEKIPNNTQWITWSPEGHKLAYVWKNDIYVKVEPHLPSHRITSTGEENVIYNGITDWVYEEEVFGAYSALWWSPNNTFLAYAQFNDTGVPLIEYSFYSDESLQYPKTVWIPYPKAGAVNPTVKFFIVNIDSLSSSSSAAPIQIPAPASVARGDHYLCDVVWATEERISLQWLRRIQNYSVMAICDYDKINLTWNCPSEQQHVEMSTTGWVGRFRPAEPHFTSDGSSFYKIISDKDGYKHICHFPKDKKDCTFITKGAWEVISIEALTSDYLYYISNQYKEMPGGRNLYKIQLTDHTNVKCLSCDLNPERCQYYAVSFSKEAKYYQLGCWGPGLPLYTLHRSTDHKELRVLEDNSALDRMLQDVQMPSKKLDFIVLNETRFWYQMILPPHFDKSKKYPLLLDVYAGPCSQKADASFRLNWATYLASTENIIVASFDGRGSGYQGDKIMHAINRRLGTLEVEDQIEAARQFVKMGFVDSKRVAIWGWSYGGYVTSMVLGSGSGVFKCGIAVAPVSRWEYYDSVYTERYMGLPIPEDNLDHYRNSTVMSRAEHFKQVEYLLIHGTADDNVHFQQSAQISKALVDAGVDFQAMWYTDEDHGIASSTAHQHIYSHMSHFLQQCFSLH

[10] = target: recombinant mouse PREP (rmPREP) (Mus musculus (Mouse), UniProt Q9QUR6); assay: PREP enzymatic activity assay; format: biochemical; details: Table 3A
recombinant mouse PREP (rmPREP), sequence (Q9QUR6 whole entry): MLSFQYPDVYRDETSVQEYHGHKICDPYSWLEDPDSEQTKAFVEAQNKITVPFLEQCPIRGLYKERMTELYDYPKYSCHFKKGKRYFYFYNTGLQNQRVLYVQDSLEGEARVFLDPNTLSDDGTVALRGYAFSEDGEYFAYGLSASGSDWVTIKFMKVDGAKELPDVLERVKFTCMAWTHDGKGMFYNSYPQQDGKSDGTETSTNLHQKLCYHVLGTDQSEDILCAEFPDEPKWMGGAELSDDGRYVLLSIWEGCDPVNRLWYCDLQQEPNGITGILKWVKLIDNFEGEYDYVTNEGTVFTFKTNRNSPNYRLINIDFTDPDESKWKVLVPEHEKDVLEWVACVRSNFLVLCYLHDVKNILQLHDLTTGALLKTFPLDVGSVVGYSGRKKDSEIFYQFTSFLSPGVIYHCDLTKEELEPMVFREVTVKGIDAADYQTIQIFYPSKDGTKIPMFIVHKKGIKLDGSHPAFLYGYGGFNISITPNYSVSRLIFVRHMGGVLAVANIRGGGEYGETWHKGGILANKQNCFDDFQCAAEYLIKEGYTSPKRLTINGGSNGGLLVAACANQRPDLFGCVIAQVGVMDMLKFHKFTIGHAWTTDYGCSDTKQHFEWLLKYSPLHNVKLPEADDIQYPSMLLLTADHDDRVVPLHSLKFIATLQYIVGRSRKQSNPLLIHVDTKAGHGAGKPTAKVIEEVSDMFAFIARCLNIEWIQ

[11] = upon standing in pH 7.8; cyclization; cited from earlier work
[12] = Homo sapiens, MV4-11, 48 h, read-out: MV4-11 viability IC50, μM

| Structure (SMILES) | IC50 [2] | IC50 [3, 12] | IC50 [5] | inhibition at 1 µM ([6]; Table 3B) | IC50 [6] | also measured |
| --- | --- | --- | --- | --- | --- | --- |
| N#C[C@@H]1CC(F)(F)CN1C(=O)CNC(=O)c1ccnc2ccc(-c3ccc(Cl)cc3)cc12 [Compound 2, (S)-6-(4-chlorophenyl)-N-(2-(2-cyano-4,4-difluoropyrrolidin-1-yl)-2-oxoethyl)quinoline-4-carboxamide] | < 1000 nM | 3 to 10 µM | – | – | – | IC50 [1]: < 1000 nM; IC50 [4]: < 1000 nM |
| N#C[C@@H]1CC(F)(F)CN1C(=O)CNC(=O)c1ccnc2ccc(-c3ccc4cc(Cl)ccc4c3)cc12 [Compound 3, (S)-6-(6-chloronaphthalen-2-yl)-N-(2-(2-cyano-4,4-difluoropyrrolidin-1-yl)-2-oxoethyl)quinoline-4-carboxamide] | < 1000 nM | 3 to 10 µM | 1000 to 10000 nM | – | – | – |
| N#C[C@@H]1CC(F)(F)CN1C(=O)CNC(=O)c1ccnc2ccc(-c3ccc4c(c3)CCC(=O)N4)cc12 [Compound 16, (S)—N-(2-(2-cyano-4,4-difluoropyrrolidin-1-yl)-2-oxoethyl)-2′-oxo-1′,2′,3′,4′-tetrahydro-[6,6′-biquinoline]-4-carboxamide] | < 1000 nM | > 10 µM | 1000 to 10000 nM | – | – | – |
| N#C[C@@H]1CC(F)(F)CN1C(=O)CNC(=O)c1ccnc2ccc(/C=C/c3ccncc3)cc12 [Compound 19, (S,E)-N-(2-(2-cyano-4,4-difluoropyrrolidin-1-yl)-2-oxoethyl)-6-(2-(pyridin-4-yl)vinyl)quinoline-4-carboxamide] | < 1000 nM | < 3 µM | 1000 to 10000 nM | – | – | – |
| N#C[C@@H]1CC(F)(F)CN1C(=O)CNC(=O)c1ccnc2ccc(/C=C/c3cccnc3)cc12 [Compound 20] | < 1000 nM | 3 to 10 µM | > 10000 nM | – | – | – |
| C[C@@H](NC(=O)c1ccnc2ccc(-c3ccc(Cl)cc3)cc12)C(=O)N1CC(F)(F)C[C@H]1C#N [Compound 26] | < 1000 nM | – | > 10000 nM | 25 to 50% | – | – |
| C[C@H](NC(=O)c1ccnc2ccc(-c3ccc(Cl)cc3)cc12)C(=O)N1CC(F)(F)C[C@H]1C#N [Compound 27] | < 1000 nM | – | > 10000 nM | < 25% | – | – |
| CC(C)[C@@H](NC(=O)c1ccnc2ccc(-c3ccc(Cl)cc3)cc12)C(=O)N1CC(F)(F)C[C@H]1C#N [Compound 28] | > 10000 nM | – | > 10000 nM | < 25% | – | IC50 [7]: > 10000 nM |
| CC(C)[C@H](NC(=O)c1ccnc2ccc(-c3ccc(Cl)cc3)cc12)C(=O)N1CC(F)(F)C[C@H]1C#N [Compound 29] | > 10000 nM | – | 1000 to 10000 nM | < 25% | – | IC50 [7]: > 10000 nM |
| COc1ccc(-c2ccc3nccc(C(=O)NCC(=O)N4CC(F)(F)C[C@H]4C#N)c3c2)cc1 [Compound 30] | < 1000 nM | 3 to 10 µM | 1000 to 10000 nM | – | – | – |
| N#C[C@@H]1CC(F)(F)CN1C(=O)CNC(=O)c1ccnc2ccc(/C=C/c3ccc4c(c3)CCNC4=O)cc12 [Compound 38] | < 1000 nM | > 10 µM | – | > 50% | < 1000 nM | – |
| N#C[C@@H]1CC(F)(F)CN1C(=O)CNC(=O)c1ccnc2ccc(-c3ccc4c(c3)C(=O)NCC4)cc12 [Compound 107] | < 1000 nM | – | 1000 to 10000 nM | > 50% | < 1000 nM | – |
| CN1C(=O)CCc2cc(-c3ccc4nccc(C(=O)NCC(=O)N5CC(F)(F)C[C@H]5C#N)c4c3)ccc21 [Compound 110] | < 1000 nM | < 3 µM | > 10000 nM | – | – | – |
| CN1CCc2cc(-c3ccc4nccc(C(=O)NCC(=O)N5CC(F)(F)C[C@H]5C#N)c4c3)ccc2C1=O [Compound 111] | < 1000 nM | – | 1000 to 10000 nM | > 50% | < 1000 nM | – |
| N#C[C@@H]1CC(F)(F)CN1C(=O)CNC(=O)c1ccnc2ccc(/C=C/c3ccc4[nH]ncc4c3)cc12 [Compound 112] | < 1000 nM | – | < 1000 nM | > 50% | < 1000 nM | – |
| N#C[C@@H]1CC(F)(F)CN1C(=O)CNC(=O)c1ccnc2ccc(-c3ccc4c(c3)CCCN4)cc12 [Compound 113] | < 1000 nM | – | 1000 to 10000 nM | > 50% | < 1000 nM | – |
| C[C@@H](NC(=O)c1ccncc1-c1ccccc1)C(=O)N1CC(F)(F)C[C@H]1C#N [Compound 126] | > 10000 nM | – | > 10000 nM | < 25% | > 10000 nM | IC50 [7]: > 10000 nM |
| C[C@H](NC(=O)c1ccncc1-c1ccccc1)C(=O)N1CC(F)(F)C[C@H]1C#N [Compound 127] | > 10000 nM | – | > 10000 nM | < 25% | > 10000 nM | IC50 [7]: > 10000 nM |
| N#C[C@@H]1CC(F)(F)CN1C(=O)CNC(=O)c1ccnc2ccccc12 [Ref. Comp.] | – | – | – | – | – | rmFAPα (% exo inh @ 1 μM) [8]: +++ (+++ refers to > 50% inhibition at 1 μM test compound); rhFAPα (% exo inh @ 1 μM) [6]: +++ (+++ refers to > 50% inhibition at 1 μM test compound); rhFAPα (% exo inh @ 1 μM) ([6]; Table 3B): +++ (+++ refers to > 50% inhibition at 1 μM test compound); IC50 [9]: > 10000 nM; IC50 [10]: > 10000 nM |
| CC(C)[C@H](N)C(=O)N1CCC[C@H]1B(O)O [Val-boroPro, reference compound] | – | – | – | – | – | stability of protease inhibitory activity [11]: rapidly loses protease inhibitory activity; IC50 ([3]; read-out: MV4-11 viability IC50, 48 hours post-treatment, Cell-Titer Glo): < 3 µM |
